# Measured values as given in patent US10631557B2, “Preservative system for acidic beverages based on sequestrants” (PepsiCo, Inc., priority 2008, dated 2020).
# “And” between values parts separate entries of the source, which are not always exact repeats. Equal values may be shown once. Read-outs that look alike come from different tables or passages of the source.
# Tests used:
# [1] = test system: Saccharomyces cerevisae; assay: Growth in beverage acidified to pH 3.6 with malic acid (Example 33); format: cell-based
# [2] = test system: Strain Y3; assay: Yeast strains spotted on agar-solidified beverage plates containing a weak organic acid (Example 25); format: cell-based, Zygossacharomyces bailii; details: sodium benzoate 700 or 1000 ppm, potassium sorbate 500 or 800 ppm, cinnamic acid 25-200 ppm
# Protocol: A 2 fold concentrate of beverage was prepared and was then mixed with an equal volume of 15% molten agar. Before solidification of the agar, the single strength beverage formulation containing 7.5% molten agar, was then divided into aliquots and to each separate aliquot was added, with the exception of one, sodium benzoate, potassium sorbate or cinnamic acid. The aliquot not receiving either potassium sorbate or cinnamic acid served as a positive control. While the agar was still molten, the agar-beverage aliquots (containing a single weak acid at a specified concentration) were poured into separate Petri plates. In Two agar plates. sodium benzoate was present at either 700 ppm or 1000 ppm) Two agar plates contained potassium sorbate (500 or 800 ppm). Six agar plates contained cinnamic acid ranging in concentrations of 25-200 ppm. Agar solidification essentially provides single strength beverage formulation in a semi-solid state.
# The 2 fold concentrate of single strength beverage and the agar supplemented single strength beverage is prepared as follows:
# After solidification of juice-agar mixture, various yeast strains (FIG. 2A) were spotted to the gel-surface of each type of mixture employing an identical pattern in each test (FIG. 2B) such that it was possible to identify the outgrowth of specific individual strains. […]
# [3] = 25 C; cited from earlier work
# [4] = acid pH
# Source text: Further, at least one regulatory agency in Asia has established an upper limit for the use of potassium sorbate at 50 ppm. If other regulatory agencies follow suite, it will be necessary to broadly apply a complement to potassium sorbate. […] Beverages are generally produced from concentrates and a […] beverage concentrate should contain 1200-1500 ppm potassium sorbate to yield a finished beverage concentration of 240-300 ppm. This often proves problematic during the batching of beverage and it is clear that a final beverage formulation containing 50-150 ppm potassium sorbate would be favored.
# [5] = test system: bio-indicators in the absence of Y3; details: potassium sorbate alone, pH 3.4, 16 weeks at 25 C, FIG. 3A
# Source text: (§1) Copper, less than 1 microgram per liter Zinc less than 1 microgram per liter, Nickel, less than 1 microgram per liter and Iron less than 0.1 microgram per liter. The water hardness was/is adjusted to 50 ppm through addition of mixture of CaCl2 and MgCl2.
# (§2) The spoilage organisms for the following examples are identified as follows: Y3, Zygosaccharomyces bailii isolate of Pepsi (Strain 906); C-7UP, Brettanomyces isolate of Pepsi, (Cherry 7-UP); Spore, ascospore preparation of Saccharomyces cerevisiae isolate of Pepsi (strain “spore”). Y22, ATCC 60484 Zygosacharomyces bailii; M1, Paecilomyces isolate of Pepsi; Y107 ATCC 52407; M2 ATCC 36614 Byssochlamys nieva. An inoculum of approximately 40 per milliliter was/is employed for each organism. All test samples were/are incubated 16 weeks at 25 C.
# (§3) A preparation of beverage was divided into multiple small volume aliquots, each aliquot containing a different concentration of potassium sorbate. The range of concentration of potassium sorbate is 0-0.094% (0-940 ppm). Preparations (aliquots) of beverage containing potassium sorbate at each test concentration (48 different values) are inoculated separately with one of 7 different spoilage organisms (bio-indicator) for a total of 336 test samples.
# (§4) The 2% fruit juice based non-carbonated beverage of pH 3.4 and about 12 Brix was generated by combining the following ingredients.
# [6] = test system: strain Y3; details: potassium sorbate alone
# Source text: as §1, §2, §3, §4
# [7] = test system: Mold (M1 & M6); details: pH 3.4
# Source text: as §1, §2, §3
# (§5) A preparation of beverage was divided into three aliquots; one was supplemented with EDTA (30 ppm) and the remaining two aliquots were supplemented with either 15 or 30 ppm EDDS.
# (§6) A 2% fruit juice based non-carbonated beverage of pH 3.4 and about 12Brix was formed by combining the following ingredients.
# (§7) The beverage aliquots were identical with the exception of the presence or concentration of either EDTA or EDDS. Each aliquot was divided further into smaller volume test samples wherein the concentration of potassium sorbate varies from 0-1500 ppm (0-0.15%). The concentration of EDTA or EDDS is held constant. Under these circumstances, it is possible to establish whether either EDTA or EDDS permitted the use of lowered concentrations of potassium sorbate to preserve a product of pH 3.4. […] The beverage is formulated to contain 50 ppm hardness.
# [8] = test system: all 7 bio-indicator strains; assay: Inoculated 2% juice beverage pH 3.4, sequestrant and weak acid combinations (Examples 27-29); format: cell-based; details: for SHMP concentration that prohibits outgrowth of all 7 bio-indicator strains: potassium sorbate 0.015%
# Source text: as §1, §2, §5, §7
# The biodegradable sequestrant ethylene diamine disuccinic acid was admixed with a sodium hexametaphosphate and cinnamic acid in the beverage as shown in the formula for the beverage.
# A 2% fruit juice based non-carbonated beverage of pH 3.4 and about 12 Brix was formed by combining the following ingredients.
# The biodegradable sequestrant ethylene diamine disuccinic acid was admixed with a bis-phosphonate (Etidronate) wherein the two sequestrants combined to limit the availability of divalent cations to spoilage microorganisms. The beverage was also supplemented with potassium sorbate.
# as §6
# [9] = Stability against heat or acid induced hydrolysis in beverage; format: physicochemical; details: thermal processing or ambient aqueous solution
# Protocol: The maximum temperature of product in container of 71.3° C. permits the use of standard PET containers as opposed to the environmentally less-sound heat-set PET containers typically employed in hot fill operations. […] A formulation containing SHMP in place of bis-phosphonate will fail because of the degradation of SHMP that occurs during thermal processing.
# Furthermore, the problem of pH drift that accompanies the use of SHMP is avoided. Substituting EDDS for EDTA avoids the concerns associated with employing a substance that is not environmentally sound.
# Bis-phosphonates, as a substitute for SHMP, allows for the use of thermal processing of beverage in that all bis-phosphonates are stable against heat or acid induced hydrolysis. Such is not the case for polyphosphates such as SHMP. Furthermore, the problem of pH drift that accompanies the use of SHMP at ambient temperatures is avoided. Substituting EDDS for EDTA avoids the concerns associated with employing a substance that is not environmentally sound.
structure (smiles),measurement,setting,value
"NCCCC(O)(P(=O)(O)O)P(=O)(O)O [Alendronate, alendronate]",effect on growth rate of Saccharomyces cerevisae,"[1]; 0.3% concentration, same beverage formulation pH 3.6",retards the growth rate
"O=C(O)C=Cc1ccccc1 [Cinnamic acid, cinnamic acid]",tolerance of strain Y3 to organic acid preservative (outgrowth on plate),[2],among the most tolerant strains
"O=C(O)CN(CCN(CC(=O)O)CC(=O)O)CC(=O)O [EDTA, ethylenediamine tetraacetic acid]",log K for sodium,[3],1.7
C/C=C/C=C/C(=O)[O-].[K+] [potassium sorbate],rate of dissolution,[4],measurably low
same,solubility,[4],not particularly soluble
same,amount of potassium sorbate required to preserve product in the absence of Y3,[5],220-250 ppm
same,concentration of potassium sorbate required to inhibit Y3 or similar strains,"[6]; pH 3.4, 16 weeks at 25 C, FIG. 3A",550-600 ppm
same,range of potassium sorbate concentrations with both growth and growth-free samples of Y3,"[6]; pH 3.4, FIG. 3A",460-660 ppm
same,concentration of potassium sorbate required to inhibit mold,[7]; combined with EDDS (30 ppm),140-160 ppm
same,concentration of potassium sorbate required to inhibit mold,[7]; combined with EDTA (30 ppm),140-160 ppm
same,concentration of potassium sorbate required to inhibit mold,[7]; potassium sorbate employed alone,180-200 ppm
"O=C(O)CC(NCCNC(CC(=O)O)C(=O)O)C(=O)O (centres unmarked) [EDDS, ethylenediamine-N,N′-disuccinic acid]",preservative performance compared with EDTA when combined with a single weak acid preservative,"[8]; 15 or 30 ppm EDDS vs 30 ppm EDTA, potassium sorbate varied, FIGS. 4A-4C",equivalent to EDTA
"O=P1([O-])OP(=O)([O-])OP(=O)([O-])OP(=O)([O-])OP(=O)([O-])OP(=O)([O-])O1.[Na+].[Na+].[Na+].[Na+].[Na+].[Na+] [SHMP, sodium hexametaphosphate]",SHMP concentration that prohibits outgrowth of all 7 bio-indicator strains,"[8]; with 30 ppm EDDS, pH 3.4, FIG. 6A",280 ppm
same,SHMP concentration that prohibits outgrowth of all 7 bio-indicator strains,"[8]; with 30 ppm EDTA, pH 3.4, FIG. 6B",250 ppm
same,stability against heat or acid induced hydrolysis,[9],degradation
"CC(O)(P(=O)(O)O)P(=O)(O)O [Etridonate, (1-hydroxyethylidene)bis-phosphonate]",Etridonate concentration that prevents outgrowth of all seven spoilage organisms,"[8]; with 30 ppm EDDS (so in the source) and 150 ppm potassium sorbate, pH 3.4, FIG. 6D",250 ppm
same,Etridonate concentration that prohibits outgrowth of all seven bio-indicator strains,"[8]; with 30 ppm EDDS and 150 ppm potassium sorbate, pH 3.4, FIG. 6C",< 425 ppm and < 450 ppm
"CCCCCN(C)CCC(O)(P(=O)(O)O)P(=O)(O)O [Ibandronate, ibandronate]",effect on growth of Saccharomyces cerevisae,"[1]; about 300 ppm, beverage pH 3.6 with malic acid",impair the growth
"O=C([O-])C=Cc1ccccc1.[K+] [K+cinnamate, Potassium Cinnamate]",K+cinnamate concentration that prohibits outgrowth of all 7 bio-indicator strains,"[8]; with 30 ppm EDDS and 750 ppm SHMP, pH 3.4, FIG. 5B",no more than 50 ppm
same,K+cinnamate concentration that prohibits outgrowth of all 7 bio-indicator strains,"[8]; with 30 ppm EDTA and 750 ppm SHMP, pH 3.4, FIG. 5A",75 ppm
